From US7618975B2, “4-arylamino-quinazolines and analogs as activators of caspases and inducers of apoptosis and the use thereof” (Myriad Pharmaceuticals, Inc., priority 2003, dated 2009)

Test system: T-47D cells
Assay: Caspase cascade activation (N-(Ac-DEVD)-N′-ethoxycarbonyl-R110 fluorogenic substrate) in T-47D cells; for Caspase activity Ratio T-47D (24 hr): test concentration or dose not given here; for Caspase activity Ratio T-47D (48 hr): test concentration or dose not given here
Type: cell-based, Human
Settings: T-47D; for Caspase activity Ratio T-47D (24 hr) / Caspase activity Ratio T-47D (48 hr): ratio of net RFU to control; for Ratio T-47D (48 hr): benzohydrazide analogs table

| Compound | Caspase activity Ratio T-47D (24 hr) | Caspase activity Ratio T-47D (48 hr) | Ratio T-47D (48 hr) |
| --- | --- | --- | --- |
| Cc1nc(N(C)c2ccc(OC(C)C)cc2)c2ccccc2n1 [Example 86, (4-Isopropoxy-phenyl)-(2-methyl-quinazolin-4-yl)-methyl-amine] | 6.2 |  |  |
| COc1ccc(N(C)c2nc(NCCN3CCOCC3)nc3cc(OC)c(OC)cc23)cc1 [Example 23, 6,7-Dimethoxy-N^4-(4-methoxy-phenyl)-N^4-methyl-N^2-(2-morpholin-4-yl-ethyl)-quinazoline-2,4-diamine] | 1.0 | 1.0 |  |
| Cc1nc(N(C)c2cnccn2)c2ccccc2n1 [Example 134, (2-Methyl-quinazolin-4-yl)-(pyrazin-2-yl)-methyl-amine] | 1.2 |  |  |
| Cc1nc(N(C)c2ccc(N)cc2Br)c2ccccc2n1 [Example 104, (4-Amino-2-bromo-phenyl)-(2-methyl-quinazolin-4-yl)-methyl-amine] | 8.6 |  |  |
| COc1ccc(N(C)c2nc(N3CCOCC3)nc3ccccc23)cc1 [Example 15] | 5.7 | 11.5 |  |
| COc1ccc(N(C)c2nc(NCCO)nc3ccccc23)cc1 [Example 11, N^2-(2-Hydroxylethyl)-N^4-(4-methoxy-phenyl)-N^4-methyl-quinazoline-2,4-diamine] | 9.0 | 12.5 |  |
| CN(c1ccc(OC(F)(F)F)cc1)c1nc(Cl)nc2ccccc12 [Example 5, (2-Chloro-quinazolin-4-yl)-(4-trifluoromethoxy-phenyl)-methyl-amine] | 10.3 |  |  |
| Cc1nc(N(C)c2ccc(F)cc2)c2ccccc2n1 [Example 124, (4-Fluoro-phenyl)-(2-methyl-quinazolin-4-yl)-methyl-amine] | 5.2 |  |  |
| CNc1nc(N(C)c2ccc(OC)cc2)c2ccccc2n1 [Example 123, (2-Methylamino-quinazolin-4-yl)-(4-methoxy-phenyl)-methyl-amine] | 8.2 |  |  |
| Cc1nc(N(C)c2ccncc2)c2ccccc2n1 [Example 136, (2-Methyl-quinazolin-4-yl)-(pyridin-4-yl)-methyl-amine] | 1.2 |  |  |
| Cc1nc(N(C)c2ccc(N)cc2)c2ccccc2n1 [Example 101, (4-Amino-phenyl)-(2-methyl-quinazolin-4-yl)-methyl-amine] | 9.5 |  |  |
| CN(c1ccccc1)c1nc(N(C)c2ccccc2)c2ccccc2n1 [Example 18, N^2,N^4-Dimethyl-N^2,N^4-diphenyl-quinazoline-2,4-diamine] | 1.0 | 1.0 |  |
| COc1ccc(N(C)c2nc(C)nc3ccccc23)nn1 [Example 125, (6-Methoxy-pyridazin-3-yl)-(2-methyl-quinazolin-4-yl)-methyl-amine] | 8.3 |  |  |
| CCN(c1ccc(OC)cc1)c1nc(Cl)nc2ccccc12 [Example 40, (2-Chloro-quinazolin-4-yl)-ethyl-(4-methoxy-phenyl)-amine] |  | 6.1 |  |
| CCOc1ccc(N(C)c2nc(C)nc3ccccc23)cc1 [Example 107, (4-Ethoxy-phenyl)-(2-methyl-quinazolin-4-yl)-methyl-amine] | 5.2 |  |  |
| Cc1nc(N(C)c2ccc(N(C)C)cc2)c2ccccc2n1 [Example 105, (4-Dimethylamino-phenyl)-(2-methyl-quinazolin-4-yl)-methyl-amine] | 8.5 |  |  |
| COc1ccc(N(C)c2nc(C)nc3ccccc23)cc1F [Example 85, (3-Fluoro-4-methoxy-phenyl)-(2-methyl-quinazolin-4-yl)-methyl-amine] | 7.6 |  |  |

| Compound | Caspase activity Ratio T-47D (24 hr) | Caspase activity Ratio T-47D (48 hr) | Ratio T-47D (48 hr) |
| --- | --- | --- | --- |
| COc1cnc(N(C)c2nc(C)nc3ccccc23)cn1 [Example 126, (5-Methoxy-pyrazin-2-yl)-(2-methyl-quinazolin-4-yl)-methyl-amine] | 7.6 |  |  |
| COc1ccc(N(C)c2nc(NCCc3c[nH]cn3)nc3ccccc23)cc1 [Example 46, N^2-[2-(1H-Imidazol-4-yl)-ethyl]-N^4-(4-methoxy-phenyl)-N^4-methyl-quinazoline-2,4-diamine] | 12.8 | 9.4 |  |
| COc1ccc(C(=O)NN(C)c2nc(C(F)(F)F)nc3ccccc23)cc1 [N′-(2-(trifluoromethyl)quinazolin-4-yl)-4-methoxy-N′-methylbenzohydrazide] |  |  | 13.1 |
| COc1ccc(N(C)c2nc(C)nc3ccccc23)c(F)c1 [Example 99, (2-Fluoro-4-methoxy-phenyl)-(2-methyl-quinazolin-4-yl)-methyl-amine] | 6.9 |  |  |
| COc1ccc(N(C)c2nc(NCCCN(C)C)nc3ccccc23)cc1 [Example 47, N^2-(3-Dimethylamino-propyl)-N^4-(4-methoxy-phenyl)-N^4-methyl-quinazoline-2,4-diamine] |  | 11.5 |  |
| COc1ccc(N(C)c2nc(C)nc3ccccc23)nc1 [Example 138, (5-Methoxy-pyridin-2-yl)-(2-methyl-quinazolin-4-yl)-methyl-amine] | 5.0 |  |  |
| Cc1nc(Nc2ccncc2)c2ccccc2n1 [Example 135, (2-Methyl-quinazolin-4-yl)-(pyridin-4-yl)-amine] | 1.2 |  |  |
| COc1ccc(N(C)c2nc(N)nc3[nH]cnc23)cc1 [Example 17, N^6-(4-Methoxy-phenyl)-N-6-methyl-9H-purine-2,6-diamine] | 3.0 |  |  |
| COc1ccc(N(c2nc(Cl)nc3ccccc23)C2CCCC2)cc1 [Example 45, (2-Chloro-quinazolin-4-yl)-cyclopentyl-(4-methoxy-phenyl)-amine] |  | 1.0 |  |
| Cc1nc(N(C)c2ccc(OC(F)F)cc2)c2ccccc2n1 [Example 84, (4-Difluoromethoxy-phenyl)-(2-methyl-quinazolin-4-yl)-methyl-amine] | 6.7 |  |  |
| COc1ccc(Nc2nc(C)nc3ccccc23)c(F)c1 [Example 96, (2-Fluoro-4-methoxy-phenyl)-(2-methyl-quinazolin-4-yl)-amine] | 1.0 |  |  |
| Cc1nc(Nc2ccc(OC(F)F)cc2)c2ccccc2n1 [Example 78, (4-Difluoromethoxy-phenyl)-(2-methyl-quinazolin-4-yl)-amine] | 0.6 |  |  |
| CSc1nc(N(C)NC(=O)c2ccccc2)c2ccccc2n1 [N′-methyl-N′-(2-(methylthio)quinazolin-4-yl)benzohydrazide] |  |  | 14.7 |
| CCOc1ccc(Nc2nc(Cl)nc3ccccc23)cc1 [Example 94, (2-Chloro-quinazolin-4-yl)-(4-ethoxy-phenyl)-amine] |  | 1.0 |  |
| COc1ccc(N(C)c2nc(C)nc3ccc(N=[N+]=[N-])cc23)cc1 [Example 111, (6-Azido-2-methyl-quinazolin-4-yl)-(4-methoxy-phenyl)-methyl-amine] | 9.4 |  |  |
| COc1ccc(N(C)c2nc(CCl)nc3ccccc23)cc1 [Example 73, (2-Chloromethyl-quinazolin-4-yl)-(4-methoxy-phenyl)-methyl-amine] | 6.2 | 5.7 |  |
| COc1ccc(Nc2nc(C)nc3ccccc23)cn1 [Example 95, (2-Methyl-quinazolin-4-yl)-(6-methoxy-pyridin-3-yl)-amine] | 1.0 |  |  |
